Reference: ChEMBL document CHEMBL4251748, “Discovery of Cytochrome P450 4F11 Activated Inhibitors of Stearoyl Coenzyme A Desaturase” (J Med Chem, 2018)
pEC50: −log10 of the molar value.

Tests used:
NCI-H1155 [1] = experiment: Cytotoxicity against human NCI-H1155 cells incubated for 4 days in presence of sodium oleate; type: functional, cell-based; conditions: NCI-H1155, 96 h
[2] = molecular target: T1, Acyl-CoA desaturase 1 (Mus musculus) (UniProt P13516); experiment: Inhibition of SCD1 in CD1 mouse liver at 100 nM using stearoyl [9,10-3H] CoA as substrate and NADPH incubated for 2 hrs by scintillation counting method
T1 sequence (whole entry): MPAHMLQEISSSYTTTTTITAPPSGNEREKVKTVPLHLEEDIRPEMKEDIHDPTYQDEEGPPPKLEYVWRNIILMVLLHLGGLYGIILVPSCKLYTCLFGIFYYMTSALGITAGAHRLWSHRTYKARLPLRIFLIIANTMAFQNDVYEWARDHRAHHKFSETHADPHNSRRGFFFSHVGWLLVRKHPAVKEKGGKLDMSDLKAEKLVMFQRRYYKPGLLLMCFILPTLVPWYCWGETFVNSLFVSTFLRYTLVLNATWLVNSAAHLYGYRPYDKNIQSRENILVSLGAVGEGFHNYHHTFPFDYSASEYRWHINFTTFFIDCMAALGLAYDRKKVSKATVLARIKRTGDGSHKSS

NCI-H1155 [3] = experiment: Cytotoxicity against human NCI-H1155 cells expressing pLVX empty vector incubated for 4 days; type: functional, cell-based; conditions: NCI-H1155, 96 h
NCI-H1155 [4] = experiment: Cytotoxicity against human NCI-H1155 cells expressing CYP4F11 incubated for 4 days in presence of sodium oleate; type: functional, cell-based; conditions: NCI-H1155, 96 h
NCI-H2122 = experiment: Cytotoxicity against human NCI-H2122 cells incubated for 4 days; type: functional, cell-based; conditions: NCI-H2122, 96 h
NCI-H1155 [5] = experiment: Cytotoxicity against human NCI-H1155 cells expressing CYP4F11 incubated for 4 days; type: functional, cell-based; conditions: NCI-H1155, 96 h
CYP4F11 = molecular target: T2, CYP4F11 (Homo sapiens, UniProt Q9HBI6); experiment: Drug metabolism in human NCI-H1155 cells assessed as CYP4F11-meidated O-demethylation by measuring half life at 500 nM by LC-MS/MS analysis; type: ADME, cell-based
T2 sequence (Q9HBI6 whole entry): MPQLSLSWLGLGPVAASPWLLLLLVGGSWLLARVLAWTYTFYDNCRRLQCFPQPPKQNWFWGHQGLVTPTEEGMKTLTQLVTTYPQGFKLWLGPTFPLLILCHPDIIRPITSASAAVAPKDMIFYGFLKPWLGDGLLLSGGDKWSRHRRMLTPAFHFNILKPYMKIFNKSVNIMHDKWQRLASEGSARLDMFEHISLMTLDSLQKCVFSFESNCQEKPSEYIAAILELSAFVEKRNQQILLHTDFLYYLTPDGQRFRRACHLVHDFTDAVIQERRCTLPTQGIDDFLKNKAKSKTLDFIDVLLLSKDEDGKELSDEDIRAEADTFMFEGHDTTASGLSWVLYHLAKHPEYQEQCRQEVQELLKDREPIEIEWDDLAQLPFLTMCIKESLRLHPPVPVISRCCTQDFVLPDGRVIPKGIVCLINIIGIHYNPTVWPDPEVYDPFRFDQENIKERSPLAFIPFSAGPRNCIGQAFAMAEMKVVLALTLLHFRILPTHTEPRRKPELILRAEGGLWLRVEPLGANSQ

[6] = Drug level in human NCI-H1155 cells after 4 hrs by LC-MS/MS analysis; type: ADME, cell-based; conditions: nci-h1155, 4 h
[7] = Half life in human NCI-H1155 cells at 500 nM by LC-MS/MS analysis; type: ADME, cell-based

Structure (SMILES)	pEC50 (NCI-H2122)	further results
O=C(NCCc1ccc(O)cc1)C(=O)NC1CC1	< 4.30	pEC50 (NCI-H1155 [1]): < 4.30; inhibition [2]: 0%; pEC50 (NCI-H1155 [3]): < 4.30; pEC50 (NCI-H1155 [4]): < 4.30; pEC50 (NCI-H1155 [5]): < 4.30
CC(CNC(=O)C(=O)Nc1ccc(Cl)cc1)c1ccc(O)cc1 (stereo not drawn)	5.40	pEC50 (NCI-H1155 [1]): < 4.30; inhibition [2]: 28%; pEC50 (NCI-H1155 [3]): < 4.30; pEC50 (NCI-H1155 [4]): < 4.30; pEC50 (NCI-H1155 [5]): < 4.30
COc1ccc(CCNC(=O)COc2ccc(Cl)cc2)cc1	< 4.30	–
Cc1ccccc1C(=O)c1ccc(C(=O)NC(=O)NCCc2ccc(O)cc2)cc1	5.82	inhibition [2]: 57%
COc1ccc(CCNC(=O)C(=O)Nc2ccncc2)cc1	< 4.30	–
COc1ccc(CCNC(=O)C(=O)Nc2ccc(Cl)c(C(F)(F)F)c2)cc1	5.85	–
COc1ccc(CCNC(=O)NC(=O)c2ccc(OCc3ccccc3)cc2)cc1	7.51	–
CC(Cc1ccc(O)cc1)NC(=O)C(=O)Nc1ccc(Cl)cc1 (stereo not drawn)	5.29	pEC50 (NCI-H1155 [1]): 5.00; inhibition [2]: 24%; pEC50 (NCI-H1155 [3]): 4.93; pEC50 (NCI-H1155 [4]): 4.89; pEC50 (NCI-H1155 [5]): 4.95
COc1ccccc1CCNC(=O)C(=O)Nc1ccc(Cl)cc1	< 4.30	–
COc1ccc(CCNC(=O)C(=O)Nc2ccc(F)c(Cl)c2)cc1	6.13	–
O=C(NCCc1ccc(Br)cc1)C(=O)Nc1ccc(Cl)cc1	< 4.30	–
COc1ccc(CCNC(=O)C(=O)Nc2cccc(Br)n2)cc1	< 4.30	–
COc1ccc(CCNC(=O)c2cnc3ccccc3n2)cc1	< 4.30	–
Cc1ccc(CCNC(=O)C(=O)Nc2ccc(Cl)cc2)cc1	< 4.30	–
COc1ccc(CCNC(=O)C(=O)NC2CCC2)cc1	< 4.30	–
COc1ccc(CCNC(=O)C(=O)Nc2cc(Cl)cc(C(F)(F)F)c2)cc1	< 4.30	–
COc1ccc(CCNC(=O)C(=O)NC2CCCC2)cc1	< 4.30	–
COc1ccc(CCNC(=O)c2ccc(Cl)cc2)cc1	< 4.30	–
COc1ccc(CCNC(=O)C(=O)Nc2cnccc2C)cc1	< 4.30	–
COc1ccc(CCNC(=O)C(=O)Nc2ccccc2)cc1	6.34	–
C#CCOc1ccc(C(=O)c2ccc(NC(=O)C(=O)NCCc3ccc(OC)cc3)cc2)cc1	7.55	half-life at 0.5 µM (CYP4F11): 28 h; pEC50 (NCI-H1155 [1]): 4.80; pEC50 (NCI-H1155 [3]): 5.07; pEC50 (NCI-H1155 [4]): < 4.30; Drug uptake [6]: 870 nM; half-life at 0.5 µM [7]: > 48 h; pEC50 (NCI-H1155 [5]): 6.92
COc1ccc(CCN(C)C(=O)NC(=O)c2ccc(C(=O)c3ccccc3)cc2)cc1	5.06	–
COc1ccc(CCNC(=O)C(=O)Nc2cncc(C)c2)cc1	5.59	–
COc1ccc(CCCCNC(=O)c2ccc(Cl)cc2)cc1	5.49	–
COc1ccc(CCNC(=O)C(=O)NC2CCCCCC2)cc1	< 4.30	–
COc1ccc(CCNC(=O)CNc2ccc(Cl)cc2)cc1	< 4.30	–
COc1ccc(CCN(C)C(=O)C(=O)Nc2ccc(Cl)cc2)cc1	4.98	–
CCOc1ccc(CCNC(=O)C(=O)Nc2ccc(Cl)cc2)cc1	< 4.30	–
COc1ccc(CCNC(=O)C(=O)Nc2ccc(C#N)cc2)cc1	6.15	–
COc1ccc(CCNC(=O)NC(=O)c2ccc(C(=O)c3ccccc3)cc2)cc1	6.96	–
